# Source: patent US4006133A, “Aminoglycoside antibiotics” (Sankyo Company Limited, priority 1973, dated 1977)
# Like-named read-outs stand apart in the source and are kept apart here.
# Experiments:
# Type in all cases: cell-based
# Bacillus anthracis = experiment: microbe, parasite or virus in culture; conditions: read-out: Minimum inhibitory concentration
# [1] = test system: Staphylococcus epidermidis; experiment: Minimum inhibitory concentration; conditions: read-out: Minimum inhibitory concentration
# Proteus rettgeri 1602 = experiment: Minimum inhibitory concentration
# Escherichia coli 704 = experiment: Minimum inhibitory concentration
# Salmonella enteritidis = experiment: Minimum inhibitory concentration; conditions: Salmonella enterica, read-out: Minimum inhibitory concentration
# [2] = test system: Pseudomonas schuylkilliensis; experiment: Minimum inhibitory concentration; conditions: read-out: Minimum inhibitory concentration
# Klebsiella 806 = experiment: Minimum inhibitory concentration
# [3] = test system: Pseudomonas aeruginosa 1016; experiment: Minimum inhibitory concentration
# Klebsiella 813 = experiment: Minimum inhibitory concentration
# Proteus vulgaris 1404 = experiment: Minimum inhibitory concentration
# Escherichia coli 605 = experiment: Minimum inhibitory concentration
# [4] = test system: Pseudomonas aeruginosa Scr.; experiment: Minimum inhibitory concentration; conditions: read-out: Minimum inhibitory concentration
# [5] = test system: Staphylococcus aureus 209 P; experiment: Minimum inhibitory concentration; conditions: read-out: Minimum inhibitory concentration
# [6] = test system: Pseudomonas aeruginosa 1100; experiment: Minimum inhibitory concentration
# Escherichia coli NIHJ = experiment: Minimum inhibitory concentration; conditions: read-out: Minimum inhibitory concentration
# Shigella flexneri 2a = experiment: Minimum inhibitory concentration; conditions: Hurt's infusion agar
# [7] = test system: Staphylococcus aureus 126; experiment: Minimum inhibitory concentration
# Proteus morganii 1512 = experiment: Minimum inhibitory concentration
# Escherichia coli 620 = experiment: Minimum inhibitory concentration
# Proteus mirabilis 1312 = experiment: Minimum inhibitory concentration
# [8] = test system: Staphylococcus aureus 109; experiment: Minimum inhibitory concentration
# [9] = test system: Staphylococcus aureus 163; experiment: Minimum inhibitory concentration
# Proteus rettgeri 1601 = experiment: Minimum inhibitory concentration
# Proteus mirabilis 1306 = experiment: Minimum inhibitory concentration
# Proteus morganii 1501 = experiment: Minimum inhibitory concentration
# Salmonella typhi-murium = experiment: Minimum inhibitory concentration; conditions: read-out: Minimum inhibitory concentration
# [10] = test system: Staphylococcus aureus 167; experiment: Minimum inhibitory concentration
# [11] = test system: Bacillus subtilis PCI-219; experiment: Minimum inhibitory concentration
# Escherichia coli 665 = experiment: Minimum inhibitory concentration
# [12] = test system: Pseudomonas aeruginosa 1055; experiment: Minimum inhibitory concentration
# Shigella sonnei = experiment: Minimum inhibitory concentration; conditions: Hurt's infusion agar
# [13] = test system: butirosin-resistant as well as butirosin-sensitive strains; experiment: Antibacterial activity, butirosin-resistant and butirosin-sensitive strains
# Proteus vulgaris 1416 = experiment: Minimum inhibitory concentration
# [14] = test system: Pseudomonas aeruginosa 1080; experiment: Minimum inhibitory concentration
smiles,measurement,setting,value
"NCC[C@H](O)C(=O)N[C@@H]1C[C@H](N)[C@@H](O[C@H]2O[C@H](CN)CC[C@H]2N)[C@H](O[C@@H]2O[C@H](CN)[C@H](O)[C@H]2O)[C@H]1O [ATBA, 5""-amino-3',4',5""-trideoxybutirosin A]",MIC,Bacillus anthracis,0.1 µg/mL
same,MIC,[1]; Hurt's infusion agar,1.5 µg/mL
same,MIC,"Proteus rettgeri 1602; Providencia rettgeri, Proteus rettgeri 1602, Hurt's infusion agar, read-out: Minimum inhibitory concentration",12.5 µg/mL
same,MIC,"Escherichia coli 704; Escherichia coli 704, Hurt's infusion agar, read-out: Minimum inhibitory concentration",6.2 µg/mL
same,MIC,"Salmonella enteritidis; Salmonella enteritidis, Hurt's infusion agar",6.2 µg/mL
same,MIC,"[2]; Pseudomonas schuylkilliensis, Hurt's infusion agar",6.2 µg/mL
same,MIC,"Klebsiella 806; Klebsiella 806, Hurt's infusion agar, read-out: Minimum inhibitory concentration",6.2 µg/mL
same,MIC,"[3]; Pseudomonas aeruginosa 1016, Hurt's infusion agar, read-out: Minimum inhibitory concentration",3.1 µg/mL
same,MIC,"Klebsiella 813; Klebsiella 813, Hurt's infusion agar, read-out: Minimum inhibitory concentration",25 µg/mL
same,MIC,"Proteus vulgaris 1404; Proteus vulgaris 1404, Hurt's infusion agar, read-out: Minimum inhibitory concentration",6.2 µg/mL
same,MIC,"Escherichia coli 605; Escherichia coli 605, Hurt's infusion agar, read-out: Minimum inhibitory concentration",25 µg/mL
same,MIC,"[4]; Pseudomonas aeruginosa Scr., Hurt's infusion agar",1.5 µg/mL
same,MIC,"[5]; Staphylococcus aureus 209 P, Hurt's infusion agar",0.2 µg/mL
same,MIC,"[6]; Pseudomonas aeruginosa 1100, Hurt's infusion agar, read-out: Minimum inhibitory concentration",25 µg/mL
same,MIC,"Escherichia coli NIHJ; Escherichia coli NIHJ, Hurt's infusion agar",3.1 µg/mL
same,MIC,Shigella flexneri 2a,3.1 µg/mL
same,MIC,"[7]; Staphylococcus aureus 126, Hurt's infusion agar, read-out: Minimum inhibitory concentration",1.5 µg/mL
same,MIC,"Proteus morganii 1512; Morganella morganii, Proteus morganii 1512, Hurt's infusion agar, read-out: Minimum inhibitory concentration",3.1 µg/mL
same,MIC,"Escherichia coli 620; Escherichia coli 620, Hurt's infusion agar, read-out: Minimum inhibitory concentration",12.5 µg/mL
same,MIC,"Proteus mirabilis 1312; Proteus mirabilis 1312, Hurt's infusion agar, read-out: Minimum inhibitory concentration",50 µg/mL
same,MIC,"[8]; Staphylococcus aureus 109, Hurt's infusion agar, read-out: Minimum inhibitory concentration",3.1 µg/mL
same,MIC,"[9]; Staphylococcus aureus 163, Hurt's infusion agar, read-out: Minimum inhibitory concentration",25 µg/mL
same,MIC,"Proteus rettgeri 1601; Providencia rettgeri, Proteus rettgeri 1601, Hurt's infusion agar, read-out: Minimum inhibitory concentration",1.5 µg/mL
same,MIC,"Proteus mirabilis 1306; Proteus mirabilis 1306, Hurt's infusion agar, read-out: Minimum inhibitory concentration",25 µg/mL
same,MIC,"Proteus morganii 1501; Morganella morganii, Proteus morganii 1501, Hurt's infusion agar, read-out: Minimum inhibitory concentration",1.5 µg/mL
same,MIC,Salmonella typhi-murium,6.2 µg/mL
same,MIC,"[10]; Staphylococcus aureus 167, Hurt's infusion agar, read-out: Minimum inhibitory concentration",0.1 µg/mL
same,MIC,"[11]; PCI219, Bacillus subtilis PCI-219, Hurt's infusion agar, read-out: Minimum inhibitory concentration",0.1 µg/mL
same,MIC,"Escherichia coli 665; Escherichia coli 665, Hurt's infusion agar, read-out: Minimum inhibitory concentration",12.5 µg/mL
same,MIC,"[12]; Pseudomonas aeruginosa 1055, Hurt's infusion agar, read-out: Minimum inhibitory concentration",6.2 µg/mL
same,MIC,Shigella sonnei,3.1 µg/mL
same,antibacterial activity (in words),[13],extremely active
same,MIC,"Proteus vulgaris 1416; Proteus vulgaris 1416, Hurt's infusion agar, read-out: Minimum inhibitory concentration",50 µg/mL
same,MIC,"[14]; Pseudomonas aeruginosa 1080, Hurt's infusion agar, read-out: Minimum inhibitory concentration",100 µg/mL
"NCC[C@H](O)C(=O)N[C@@H]1C[C@H](N)[C@@H](O[C@H]2O[C@H](CN)[C@@H](O)[C@H](O)[C@H]2N)[C@H](O[C@@H]2O[C@H](CO)[C@H](O)[C@H]2O)[C@H]1O [BA, butirosin A, reference compound]",MIC,Bacillus anthracis,0.8 µg/mL
same,MIC,[1],0.4 µg/mL
same,MIC,"Proteus rettgeri 1602; Providencia rettgeri, 1602, read-out: Minimum inhibitory concentration",> 200 µg/mL
same,MIC,"Escherichia coli 704; Escherichia coli, 704, read-out: Minimum inhibitory concentration",12.5 µg/mL
same,MIC,Salmonella enteritidis; ENTERITIDIS,12.5 µg/mL
same,MIC,[2]; Pseudomonas,25 µg/mL
same,MIC,"Klebsiella 806; Klebsiella, 806, read-out: Minimum inhibitory concentration",3.1 µg/mL
same,MIC,"[3]; Pseudomonas aeruginosa, 1016, read-out: Minimum inhibitory concentration",> 200 µg/mL
same,MIC,"Klebsiella 813; Klebsiella, 813, read-out: Minimum inhibitory concentration",50 µg/mL
same,MIC,"Proteus vulgaris 1404; Proteus vulgaris, 1404, read-out: Minimum inhibitory concentration",25 µg/mL
same,MIC,"Escherichia coli 605; Escherichia coli, 605, read-out: Minimum inhibitory concentration",> 200 µg/mL
same,MIC,[4]; Pseudomonas aeruginosa,12.5 µg/mL
same,MIC,"[5]; Staphylococcus aureus, 209P",1.5 µg/mL
same,MIC,"[6]; Pseudomonas aeruginosa, 1100, read-out: Minimum inhibitory concentration",> 200 µg/mL
same,MIC,Escherichia coli NIHJ; Escherichia coli,3.1 µg/mL
same,MIC,Shigella flexneri 2a,6.2 µg/mL
same,MIC,"[7]; Staphylococcus aureus, 126, read-out: Minimum inhibitory concentration",6.5 µg/mL
same,MIC,"Proteus morganii 1512; Morganella morganii, 1512, read-out: Minimum inhibitory concentration",25 µg/mL
same,MIC,"Escherichia coli 620; Escherichia coli, 620, read-out: Minimum inhibitory concentration",> 200 µg/mL
same,MIC,"Proteus mirabilis 1312; Proteus mirabilis, 1312, read-out: Minimum inhibitory concentration",100 µg/mL
same,MIC,"[8]; Staphylococcus aureus, 109, read-out: Minimum inhibitory concentration",> 200 µg/mL
same,MIC,"[9]; Staphylococcus aureus, 163, read-out: Minimum inhibitory concentration",> 200 µg/mL
same,MIC,"Proteus rettgeri 1601; Providencia rettgeri, 1601, read-out: Minimum inhibitory concentration",6.2 µg/mL
same,MIC,"Proteus mirabilis 1306; Proteus mirabilis, 1306, read-out: Minimum inhibitory concentration",50 µg/mL
same,MIC,"Proteus morganii 1501; Morganella morganii, 1501, read-out: Minimum inhibitory concentration",3.1 µg/mL
same,MIC,"Salmonella typhi-murium; Salmonella typhi-murium, Hurt's infusion agar",12.5 µg/mL
same,MIC,"[10]; Staphylococcus aureus, 167, read-out: Minimum inhibitory concentration",200 µg/mL
same,MIC,"[11]; Bacillus subtilis, PCI219, read-out: Minimum inhibitory concentration",0.4 µg/mL
same,MIC,"Escherichia coli 665; Escherichia coli, 665, read-out: Minimum inhibitory concentration",> 200 µg/mL
same,MIC,"[12]; Pseudomonas aeruginosa, 1055, read-out: Minimum inhibitory concentration",> 200 µg/mL
same,MIC,Shigella sonnei,6.2 µg/mL
same,MIC,"Proteus vulgaris 1416; Proteus vulgaris, 1416, read-out: Minimum inhibitory concentration",100 µg/mL
same,MIC,"[14]; Pseudomonas aeruginosa, 1080, read-out: Minimum inhibitory concentration",> 200 µg/mL
